{"source": "patent US11672803B2", "about": "“Use of inhibitors of Brutons tyrosine kinase (Btk)” (priority 2010, dated 2023)", "key": {"[1]": {"tested_on": "individuals with follicular lymphoma", "assay": "Absolute lymphocyte count / B cell mobilization vs cycle day in individuals with follicular lymphoma", "format": "in vivo, human", "procedure": "All Patients (except Pt 32009) were treated on schedule of 4 weeks on treatment followed by one week off. Thus, day 1 of each cycle follows one week off drug for these patients.\nAll Patients were treated on schedule of 4 weeks on treatment followed by one week off. Thus, day 1 of each cycle follows one week off drug for these patients.\nAll Patients except 38010 were treated on schedule of 4 weeks on treatment followed by one week off. Thus, day 1 of each cycle follows one week off drug for these patients."}, "[2]": {"tested_on": "individuals with DLBCL", "assay": "Absolute lymphocyte count vs cycle day in individuals with DLBCL", "format": "in vivo, human", "details": "PD individuals, FIG. 11", "procedure": "Patient 38011 was treated on schedule of 4 weeks on treatment followed by one week off. Thus, day 1 of each cycle follows one week off drug for this patient. Patients 38008 and 324001 were treated with continuous daily doses.\nAll Patients were treated on schedule of 4 weeks on treatment followed by one week off. Thus, day 1 of each cycle follows one week off drug for these patients. […] Patient 32002 received only one cycle of treatment."}, "[3]": {"tested_on": "individuals with mantle cell lymphoma", "assay": "Absolute lymphocyte count vs cycle day in individuals with mantle cell lymphoma", "format": "in vivo, human", "procedure": "Patients 32006, 38003, and 38004 were treated on schedule of 4 weeks on treatment followed by one week off. Thus, day 1 of each cycle follows one week off drug for these patients. The other patients were treated with continuous daily dosing."}, "[4]": {"tested_on": "DoHH2 cells", "assay": "Alamar blue assay in DoHH2 cells", "format": "cell-based", "details": "DLBCL cell line from a transformed follicular lymphoma patient", "text": "DOHH2 is a DLBCL (diffuse large B-cell lymphoma) cell line, from a transformed follicular lymphoma patient.\nAssay was an alamar blue assay."}}, "data": [{"smiles": "C=CC(=O)N1CCC[C@@H](n2nc(-c3ccc(Oc4ccccc4)cc3)c3c(N)ncnc32)C1", "note": "[Btk inhibitor, (R)-1-(3-(4-amino-3-(4-phenoxyphenyl)-1H-pyrazolo[3,4-d]pyrimidin-1-yl)piperidin-1-yl)prop-2-en-1-one]", "values": [{"measurement": "B cell fraction change by cycle", "setting": "[1]; Patient 32007, Cohort 4, follicular lymphoma grade 3, regressed from SD to CR, FIG. 14", "result": "characteristic cyclic increases"}, {"measurement": "Lymphocyte mobilization (ALC)", "setting": "[1]; follicular lymphoma, PD individuals, FIG. 9", "result": "lack of mobilization"}, {"measurement": "Absolute lymphocyte count (ALC) change by cycle", "setting": "[1]; follicular lymphoma, complete or partial response (CR/PR), 4 weeks on, 1 week off, FIG. 7", "result": "increases of ALC during most cycles of most patients"}, {"measurement": "Lymphocyte mobilization (ALC)", "setting": "[2]", "result": "lack of mobilization for 3 of the 4 patients"}, {"measurement": "Lymphocyte mobilization (ALC)", "setting": "[3]; patient with initial PD (32014), FIG. 12", "result": "failed to show mobilization"}, {"measurement": "Lymphocyte mobilization (ALC)", "setting": "[3]; responding patients, FIG. 13", "result": "all responding patients showed some degree of mobilization"}, {"measurement": "Sensitivity of DOHH2 cell line", "setting": "[4]", "result": "moderately sensitive"}]}]}
